# Read-outs that look alike come from different tables or passages of the source.
# Assays:
# Factor XIa = Factor XIa (Homo sapiens (Human), UniProt P03951); experiment: Factor XIa inhibition assay (FLINT) utilizing a fluorophore-quencher pair peptide substrate; type: biochemical; conditions: 30 min preincubation, kinetic reads over 30 min, read-out: FXIa Kin Inh IC50
# Outline: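 FXIa ([…]) preincubated 30 min with compound (11-point 3-fold dilution, top 100 nM, 2% DMSO), then 15 μM quenched FXI Arg146-based peptide added; Tris pH 7.5, CaCl2, BSA, CHAPS. Fluorescence 485/520 nm read kinetically every 5 min over 30 min at RT; IC50 by 4-parameter fit.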
# human plasma kallikrein = human plasma kallikrein (Homo sapiens (Human), UniProt P03952); experiment: Kallikrein inhibition assay (FLINT) utilizing a quenched AMC peptide substrate; type: biochemical; conditions: 30 min preincubation, kinetic reads over 30 min, Z-Gly-Pro-Arg-AMC substrate 50 μM; read-out: Kallikrein Kin Inh IC50
# Outline: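 Enzyme (2 nM final) pre-incubated 30 min at room temperature with compound (11-point, 3-fold, top 1 μM, 2% DMSO), then 50 μM Z-Gly-Pro-Arg-AMC added in Tris pH 7.5 buffer. Kinetic fluorescence 340/440 nm every 5 min over 30 min; IC50 from 4-parameter logistic fit.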
# [1] = 5Fam-KLTRAETV-K5Tamra substrate 15 μM
# Factor XIa, sequence (P03951 388-625): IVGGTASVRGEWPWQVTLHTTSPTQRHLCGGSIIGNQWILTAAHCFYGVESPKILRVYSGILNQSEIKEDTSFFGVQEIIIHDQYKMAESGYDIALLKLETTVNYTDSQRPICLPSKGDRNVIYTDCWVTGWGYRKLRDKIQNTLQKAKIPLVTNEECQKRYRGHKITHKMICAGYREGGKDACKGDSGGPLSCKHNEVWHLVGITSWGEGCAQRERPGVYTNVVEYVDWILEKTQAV
# Factor XIa, sequence (P03951 19-387 partner): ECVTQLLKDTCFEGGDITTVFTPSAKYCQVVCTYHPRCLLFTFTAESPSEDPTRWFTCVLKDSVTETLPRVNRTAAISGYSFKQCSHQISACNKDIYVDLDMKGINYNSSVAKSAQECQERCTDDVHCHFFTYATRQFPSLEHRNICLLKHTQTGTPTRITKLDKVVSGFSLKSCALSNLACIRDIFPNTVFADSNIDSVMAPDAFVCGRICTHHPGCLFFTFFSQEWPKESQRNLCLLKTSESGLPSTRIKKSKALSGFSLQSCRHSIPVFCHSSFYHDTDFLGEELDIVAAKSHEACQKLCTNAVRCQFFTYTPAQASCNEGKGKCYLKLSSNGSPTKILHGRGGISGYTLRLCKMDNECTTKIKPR
# human plasma kallikrein, sequence (P03952 391-638): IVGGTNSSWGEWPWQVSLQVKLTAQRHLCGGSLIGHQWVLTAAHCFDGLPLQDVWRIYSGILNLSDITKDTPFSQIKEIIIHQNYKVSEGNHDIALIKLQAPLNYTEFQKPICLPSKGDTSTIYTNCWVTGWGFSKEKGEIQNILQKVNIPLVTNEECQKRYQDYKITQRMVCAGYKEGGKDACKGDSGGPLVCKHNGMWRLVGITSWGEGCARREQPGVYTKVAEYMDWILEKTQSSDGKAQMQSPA
# human plasma kallikrein, sequence (P03952 20-390 partner): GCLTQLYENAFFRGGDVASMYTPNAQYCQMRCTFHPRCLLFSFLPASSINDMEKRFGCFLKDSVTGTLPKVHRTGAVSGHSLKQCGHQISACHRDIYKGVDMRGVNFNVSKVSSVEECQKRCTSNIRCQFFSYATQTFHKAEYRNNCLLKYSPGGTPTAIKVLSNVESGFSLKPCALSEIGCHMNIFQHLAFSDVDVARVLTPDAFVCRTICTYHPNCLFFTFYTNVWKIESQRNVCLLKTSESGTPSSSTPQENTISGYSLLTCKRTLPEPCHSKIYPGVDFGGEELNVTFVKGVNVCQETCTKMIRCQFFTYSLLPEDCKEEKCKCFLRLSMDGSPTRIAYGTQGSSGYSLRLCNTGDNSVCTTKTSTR
Structure (SMILES),IC50 (Factor XIa; [1]) [nM],IC50 (human plasma kallikrein) [nM],IC50 (Factor XIa; 5Fam-[…]-K5Tamra substrate 15 μM) [nM]
"NC(=O)c1sc(-c2c[nH]c([C@@H]3CC[C@H]4CC(c5c(-n6cnnn6)ccc(Cl)c5F)=CC(=O)N43)n2)cc1F [Example 215, 5-(2-((3S,8aS)-7-(3-Chloro-2-fluoro-6-(1H-tetrazol-1-yl)phenyl)-5-oxo-1,2,3,5,8,8a-hexahydroindolizin-3-yl)-1H-imidazol-4-yl)-3-fluorothiophene-2-carboxamide]",> 100,117,
"NC(=O)c1sc(-c2c[nH]c([C@@H]3CC[C@@H]4CC(c5c(-n6cnnn6)ccc(Cl)c5F)=CC(=O)N43)n2)cc1F [Example 216, 5-(2-((3S,8aR)-7-(3-Chloro-2-fluoro-6-(1H-tetrazol-1-yl)phenyl)-5-oxo-1,2,3,5,8,8a-hexahydroindolizin-3-yl)-1H-imidazol-4-yl)-3-fluorothiophene-2-carboxamide]",19.6,27.4,
"O=C1C=C(c2c(-n3cnnn3)ccc(Cl)c2F)C[C@H]2CC[C@@H](c3ncc(-c4c[nH]nc4F)[nH]3)N12 [Example 217, (3S,8aR)-7-(3-Chloro-2-fluoro-6-(1H-tetrazol-1-yl)phenyl)-3-(5-(3-fluoro-1H-pyrazol-4-yl)-1H-imidazol-2-yl)-2,3,8,8a-tetrahydroindolizin-5(1H)-one]",4.5,32.6,
"NC(=O)c1cc(-c2nc([C@@H]3CCC4CC(c5c(-n6cnnn6)ccc(Cl)c5F)=CC(=O)N43)[nH]c2Cl)cs1 (stereo partly drawn) [Example 218, 4-(5-Chloro-2-((3S)-7-(3-chloro-2-fluoro-6-(1H-tetrazol-1-yl)phenyl)-5-oxo-1,2,3,5,8,8a-hexahydroindolizin-3-yl)-1H-imidazol-4-yl)thiophene-2-carboxamide]",0.3,0.7,
"NC(=O)c1cc(-c2c[nH]c([C@@H]3CCC4CC(c5c(-n6cnnn6)ccc(Cl)c5F)=CC(=O)N43)n2)cs1 (stereo partly drawn) [Example 219, 4-(2-((3S)-7-(3-Chloro-2-fluoro-6-(1H-tetrazol-1-yl)phenyl)-5-oxo-1,2,3,5,8,8a-hexahydroindolizin-3-yl)-1H-imidazol-4-yl)thiophene-2-carboxamide]",2.1,1.9,
"NC(=O)c1ccc(-c2c[nH]c([C@@H]3CC[C@@H]4CC(c5c(-n6cc(C(F)(F)F)nn6)ccc(Cl)c5F)=CC(=O)N43)n2)s1 [Example 220, 5-(2-((3S,8aR)-7-(3-Chloro-2-fluoro-6-(4-(trifluoromethyl)-1H-1,2,3-triazol-1-yl)phenyl)-5-oxo-1,2,3,5,8,8a-hexahydroindolizin-3-yl)-1H imidazol-4-yl)thiophene-2-carboxamide]",5,9.7,
"O=C1C=C(c2c(-n3cnnn3)ccc(Cl)c2F)C[C@H]2CC[C@@H](c3ncc(-c4ccnc(CO)c4F)[nH]3)N12 [Example 222, (3S,8aR)-7-(3-Chloro-2-fluoro-6-(1H-tetrazol-1-yl)phenyl)-3-(5-(3-fluoro-2-(hydroxymethyl)pyridin-4-yl)-1H-imidazol-2-yl)-2,3,8,8a-tetrahydroindolizin-5(1H)-one]",1.8,12.6,
"O=C1C=C(c2c(-n3cc(C(F)(F)F)nn3)ccc(Cl)c2F)C[C@H]2CC[C@@H](c3ncc(-c4ccc(CO)nc4Cl)[nH]3)N12 [Example 223, (3S,8aR)-7-(3-Chloro-2-fluoro-6-(4-(trifluoromethyl)-1H-1,2,3-triazol-1-yl)phenyl)-3-(5-(2-chloro-6-(hydroxymethyl)pyridin-3-yl)-1H-imidazol-2-yl)-2,3,8,8a-tetrahydroindolizin-5(1H)-one]",15.9,138,
"COc1n[nH]cc1-c1cnc([C@@H]2CC[C@@H]3CC(c4c(-n5cnnn5)ccc(Cl)c4F)=CC(=O)N32)[nH]1 [Example 227, (3S,8aR)-7-(3-chloro-2-fluoro-6-(1H-tetrazol-1-yl)phenyl)-3-(5-(3-methoxy-1H-pyrazol-4-yl)-1H-imidazol-2-yl)-2,3,8,8a-tetrahydroindolizin-5(1H)-one]",3.5,11.4,
"NC(=O)c1ccc(-c2cnc([C@@H]3CC[C@H]4CC(c5c(-n6cnnn6)ccc(Cl)c5F)=CC(=O)N43)[nH]2)c(Cl)n1 [Example 228, 6-Chloro-5-(2-((3S,8aS)-7-(3-chloro-2-fluoro-6-(1H-tetrazol-1-yl)phenyl)-5-oxo-1,2,3,5,8,8a-hexahydroindolizin-3-yl)-1H-imidazol-5-yl)picolinamide]",18.8,162,
"NC(=O)c1ccc(-c2cnc([C@@H]3CC[C@@H]4CC(c5c(-n6cnnn6)ccc(Cl)c5F)=CC(=O)N43)[nH]2)c(Cl)n1 [Example 229, 6-Chloro-5-(2-((3S,8aR)-7-(3-chloro-2-fluoro-6-(1H-tetrazol-1-yl)phenyl)-5-oxo-1,2,3,5,8,8a-hexahydroindolizin-3-yl)-1H-imidazol-5-yl)picolinamide]",54.9,342,
"O=C1C=C(c2c(-n3cnnn3)ccc(Cl)c2F)C[C@H]2CC[C@@H](c3ncc(-c4c[nH]cc4C(F)(F)F)[nH]3)N12 [Example 230, (3S,8aR)-7-(3-Chloro-2-fluoro-6-(1H-tetrazol-1-yl)phenyl)-3-(5-(4-(trifluoromethyl)-1H-pyrrol-3-yl)-1H-imidazol-2-yl)-2,3,8,8a-tetrahydroindolizin-5(1H)-one]",0.4,11.1,
"O=C1C=C(c2c(-n3cnnn3)ccc(Cl)c2F)C[C@H]2CC[C@@H](c3ncc(-c4c[nH]c(C(F)(F)F)n4)[nH]3)N12 [Example 231, (3S,8aR)-7-(3-Chloro-2-fluoro-6-(1H-tetrazol-1-yl)phenyl)-3-(2-(trifluoromethyl)-1H,3′H-[4,4′-biimidazol]-2′-yl)-2,3,8,8a-tetrahydroindolizin-5(1H)-one]",37.1,84.6,
"NC(=O)c1cc(-c2cnc([C@@H]3CC[C@H]4CC(c5c(-n6cnnn6)ccc(Cl)c5F)=CC(=O)N43)[nH]2)ccc1F [Example 232, 5-(2-((3S,8aS)-7-(3-Chloro-2-fluoro-6-(1H-tetrazol-1-yl)phenyl)-5-oxo-1,2,3,5,8,8a-hexahydroindolizin-3-yl)-1H-imidazol-5-yl)-2-fluorobenzamide]",> 100,17.8,
"NC(=O)c1cc(-c2cnc([C@@H]3CC[C@@H]4CC(c5c(-n6cnnn6)ccc(Cl)c5F)=CC(=O)N43)[nH]2)ccc1F [Example 233, 5-(2-((3S,8aR)-7-(3-chloro-2-fluoro-6-(1H-tetrazol-1-yl)phenyl)-5-oxo-1,2,3,5,8,8a-hexahydroindolizin-3-yl)-1H-imidazol-5-yl)-2-fluorobenzamide]",24.2,6.7,
"NC(=O)c1cc(-c2cnc([C@@H]3CC[C@@H]4CC(c5c(-n6cnnn6)ccc(Cl)c5F)=CC(=O)N43)[nH]2)cs1 [Example 234, 4 (2-((3S,8aR)-7-(3-Chloro-2-fluoro-6-(1H-tetrazol-1-yl)phenyl)-5-oxo-1,2,3,5,8,8a-hexahydroindolizin-3-yl)-1H-imidazol-5-yl)thiophene-2-carboxamide]",1,0.6,
"O=C1C=C(c2c(-n3cnnn3)ccc(Cl)c2F)C[C@H]2CC[C@@H](c3ncc(-c4ccc(CO)nc4Cl)[nH]3)N12 [Example 236, (3S,8aR)-7-(3-Chloro-2-fluoro-6-(1H-tetrazol-1-yl)phenyl)-3-(5-(2-chloro-6-(hydroxymethyl)pyridin-3-yl)-1H-imidazol-2-yl)-2,3,8,8a-tetrahydroindolizin-5(1H)-one]",5.3,21.6,
"NC(=O)c1cccc(-c2cnc([C@@H]3CC[C@@H]4CC(c5c(-n6cnnn6)ccc(Cl)c5F)=CC(=O)N43)[nH]2)c1F [Example 237, 3-(2-((3S,8aR)-7-(3-Chloro-2-fluoro-6-(1H-tetrazol-1-yl)phenyl)-5-oxo-1,2,3,5,8,8a-hexahydroindolizin-3-yl)-1H-imidazol-5-yl)-2-fluorobenzamide]",5.6,1.5,
"O=C(Nc1cnc(C(F)(F)F)cc1-c1cnc([C@@H]2CC[C@@H]3CC(c4c(-n5cnnn5)ccc(Cl)c4F)=CC(=O)N32)[nH]1)C1CC1 [Example 241, N-[4-[2-[(3S,8aR)-7-[3-Chloro-2-fluoro-6-(tetrazol-1-yl)phenyl]-5-oxo-2,3,8,8a-tetrahydro-1H-indolizin-3-yl]-1H-imidazol-5-yl]-6-(trifluoromethyl)-3-pyridyl]cyclopropanecarboxamide]",3.3,14.9,
"O=C(Nc1cnc(C(F)(F)F)cc1-c1cnc([C@@H]2CC[C@H]3CC(c4c(-n5cnnn5)ccc(Cl)c4F)=CC(=O)N32)[nH]1)C1CC1 [Example 242, N-[4 [2-[(3S,8aS)-7-[3-Chloro-2-fluoro-6-(tetrazol-1-yl)phenyl]-5-oxo-2,3,8,8a-tetrahydro-1H-indolizin-3-yl]-1H-imidazol-5-yl]-6-(trifluoromethyl)-3-pyridyl]cyclopropanecarboxamide]",10.8,18.7,
"[2H]C([2H])([2H])C(=O)Nc1cnc(C(F)(F)F)cc1-c1cnc([C@@H]2CC[C@@H]3CC(c4c(-n5cnnn5)ccc(Cl)c4F)=CC(=O)N32)[nH]1 [Example 243, N-[4-[2-[(3S,8aR)-7-[3-Chloro-2-fluoro-6-(tetrazol-1-yl)phenyl]-5-oxo-2,3,8,8a-tetrahydro-1H-indolizin-3-yl]-1H-imidazol-5-yl]-6-(trifluoromethyl)-3-pyridyl]-2,2,2-trideuterio-acetamide]",,653,52
